PubChem BioAssay (NCI)
Where “and” joins values, the source holds several entries; their conditions need not be identical. Equal values may be shown once.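 A five-concentration, 48-hour dose response in 96-well plates underlies each endpoint, interpolated linearly between surrounding concentrations. At the GI50, growth is halved. TGI: concentration producing complete growth inhibition.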

Experiments:
Assay in all cases: DTP human tumour cell line panel, 48 h
[1] = tested on: MDA-MB-435
[2] = tested on: A549 NSCLC
[3] = tested on: T-47D breast
[4] = tested on: NCI-H226 lung
[5] = tested on: UACC-257 melanoma
[6] = tested on: UO-31 renal
[7] = tested on: IGROV1 ovarian
[8] = tested on: LOX IMVI melanoma
[9] = tested on: MDA-MB-231 breast
[10] = tested on: TK-10 renal

Compound	TGI [1] [µM]	TGI [2] [µM]	TGI [3] [µM]	TGI [4]	TGI [5]	TGI [6]	TGI [7]	TGI [8]	TGI [9] [µM]	GI50 [1] [µM]	GI50 [2] [µM]	GI50 [3] [µM]	GI50 [4] [µM]	GI50 [6] [µM]	GI50 [10] [µM]	TGI [10] [µM]	GI50 [7] [µM]	GI50 [8] [µM]	GI50 [5] [µM]	GI50 [9] [µM]
CNC(=O)/C=C/C1=CN2C(=O)c3ccc(C)c(O)c3NC(OC)C2C1 (stereo not given)	< 0.0176	> 100	< 0.0489	0.0731 µM	< 0.0169 µM	0.265 µM	> 100 µM	4.19 µM	< 0.0397											
Cc1ccc2ncnc(N(C)C3CCCCC3)c2c1	68.2	44.2	> 100	58.4 µM		> 100 µM	> 100 µM	68.3 µM		23	16.1	76.9	18.7	24.5	36	> 100	34.1	21.7		
O=C1CCc2cc(Br)ccc2O1	> 100	> 100	> 100	> 100 µM	> 100 µM		> 100 µM	> 100 µM								> 100				
C[C@@H](NC1CCCC[C@@H]1O)c1ccccc1 (stereo not given in full)		> 100		> 100 µM	> 100 µM	> 100 µM	> 100 µM	> 100 µM								> 100				
CC(=O)[O-].CC(=O)[O-].O=C([CH-]C(=O)c1ccccc1)c1ccccc1.[Nd+3].[OH3+]		84.3		60.6 µM	54.9 µM	49.3 µM	> 100 µM	> 100 µM			28.2		13.8	17	27	87.6	28.5	22.4	17.9	
CC(=O)OCc1nnn2c1C(OC(C)=O)CC2 (stereo not given)		> 100		> 100 µM	> 100 µM	> 100 µM	> 100 µM									> 100				
CCOc1cc(Cl)c(C(C)NC(=O)c2cccc(OC)c2)cc1OCC (stereo not given)		> 100	> 100	> 100 µM	> 100 µM	> 100 µM	> 100 µM	> 100 µM	> 100		8.59	7.06	37.4	13.9	28.6	> 100	17.5	14.2	37	11.1
O=C(O)c1ccc(CSc2nc3ccccc3[nH]2)cc1	> 100	> 100		> 100 µM	> 100 µM	> 100 µM	> 100 µM	> 100 µM	> 100	> 100	> 100		> 100	> 100	> 100	> 100	> 100	> 100	> 100	> 100
COc1ccc2nc3cc([N+](=O)[O-])ccc3c(NCCO)c2c1	5.09	23.9	4.65	14.7 µM	7.68 µM	19 µM	13.6 µM	9.18 µM	28.1	2.12	4.44	0.539	3.67	4.75			3.17	2.51	2.61	4.4
CCCCCOC(=O)Nc1nc(=O)n(C2OC(C)C(O)C2O)cc1F (stereo not given)	> 10000		> 10000		> 10000 µM	> 10000 µM	> 10000 µM			> 10000		> 10000		> 10000	> 10000	> 10000			> 10000	
CC[C@]12C=CCN3CC[C@@]4(c5ccc(OC)cc5N(C)[C@H]4[C@@](O)(C(=O)OC)[C@@H]1OC(=O)CCC(=O)O[C@H]1CC[C@H]4[C@@H]5CCC6=CC(=O)CC[C@@H]6[C@H]5CC[C@]14C)[C@@H]32	> 50	> 50	> 50	> 50 µM	> 50 µM		3.13 µM	4.63 µM	> 50	1.93	1.64	1.79	2.07		1.91	> 50	0.973	1.51	2.65	2.21
CC(=O)OC(C(=O)[O][Ge]([CH3])([CH3])[CH3])c1ccccc1 (stereo not given)		> 100		> 100 µM	> 100 µM	> 100 µM	> 100 µM	> 100 µM			> 100		> 100	> 100	> 100	> 100	> 100	> 100	> 100	
O=C1NC(c2ccc3ccccc3c2)Nc2ccccc21 (stereo not given)	50.7		> 100	> 100 µM	> 100 µM	> 100 µM	> 100 µM	> 100 µM	> 100							> 100				
CCCCCCCCCCCCC(O)C1CCC(C(O)CCCCC(O)CCCCCC2CC(CC(C)=O)C(=O)O2)O1 (stereo not given)		18.7		4.19 µM and 12.7 µM	5.08 µM and 6.25 µM	3.81 µM and 14 µM	3.1 µM and 26.6 µM	2.24 µM and 9.49 µM	7.38		1.55		0.0401	1.06	2.4	14.1	1.49	1.06	1.13	
CC[O-].CC[O-].O=C1C=C([O-])C(=O)c2ccccc21.O=C1C=C([O-])C(=O)c2ccccc21.[Ti+4]		> 100		> 100 µM	> 100 µM	> 100 µM	> 100 µM	> 100 µM			26		> 82.8	> 86.1	> 67.7	> 100	> 100	5.25	> 27.9	
O=C(/C=C(/C=C/c1cccc2[nH]ccc12)OB(F)F)/C=C/c1cccc2[nH]ccc12	2.55	14.2	26.8	5.59 µM	11.8 µM		6 µM	1.02 µM	5.19	0.475	1.62	0.796	1.87		1.93	7.42	0.62	0.348	2.15	1.55
CCOC(=O)C(C(=O)OCC)=C1C=C(c2ccccc2)c2ccccc21		> 100		> 100 µM	> 100 µM	> 100 µM	> 100 µM	> 100 µM								> 100				
